Data reported in patent publication US20250051344A1, “BIFUNCTIONAL SELECTIVE DEGRADERS OF SMARCA2 AND THERAPEUTIC USES THEREOF” (Nurix Therapeutics, Inc., priority 2023, published 2025).

Legend:
SMARCA2 = target: T1, SMARCA2 (Homo sapiens, UniProt P51531); assay: SMARCA2 Cellular Degradation Assay (Western blot analysis on Jess platform); assay type: cell-based; conditions: for DC50 / Dmax: cellular degradation; for Fold Selectivity SMARCA4/2: ratio DC50 SMARCA4 / DC50 SMARCA2
T1 construct: endogenous in cells
Outline: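 Lysates of cells extracted from tumors were prepared in supplemented RIPA buffer, and 5 μg total protein per capillary was analysed by capillary Western (Jess) with anti-SMARCA2 and anti-β-actin antibodies. SMARCA2 electropherogram area was background-subtracted, normalized to actin, and expressed as percent remaining versus vehicle control.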

SMARCA4 = target: T2, SMARCA4 (Homo sapiens, UniProt P51532); assay: Cellular degradation assay, SMARCA4 (Table 1); assay type: cell-based
T2 construct: endogenous in cells
T2 sequence (P51532 whole entry, species assumed): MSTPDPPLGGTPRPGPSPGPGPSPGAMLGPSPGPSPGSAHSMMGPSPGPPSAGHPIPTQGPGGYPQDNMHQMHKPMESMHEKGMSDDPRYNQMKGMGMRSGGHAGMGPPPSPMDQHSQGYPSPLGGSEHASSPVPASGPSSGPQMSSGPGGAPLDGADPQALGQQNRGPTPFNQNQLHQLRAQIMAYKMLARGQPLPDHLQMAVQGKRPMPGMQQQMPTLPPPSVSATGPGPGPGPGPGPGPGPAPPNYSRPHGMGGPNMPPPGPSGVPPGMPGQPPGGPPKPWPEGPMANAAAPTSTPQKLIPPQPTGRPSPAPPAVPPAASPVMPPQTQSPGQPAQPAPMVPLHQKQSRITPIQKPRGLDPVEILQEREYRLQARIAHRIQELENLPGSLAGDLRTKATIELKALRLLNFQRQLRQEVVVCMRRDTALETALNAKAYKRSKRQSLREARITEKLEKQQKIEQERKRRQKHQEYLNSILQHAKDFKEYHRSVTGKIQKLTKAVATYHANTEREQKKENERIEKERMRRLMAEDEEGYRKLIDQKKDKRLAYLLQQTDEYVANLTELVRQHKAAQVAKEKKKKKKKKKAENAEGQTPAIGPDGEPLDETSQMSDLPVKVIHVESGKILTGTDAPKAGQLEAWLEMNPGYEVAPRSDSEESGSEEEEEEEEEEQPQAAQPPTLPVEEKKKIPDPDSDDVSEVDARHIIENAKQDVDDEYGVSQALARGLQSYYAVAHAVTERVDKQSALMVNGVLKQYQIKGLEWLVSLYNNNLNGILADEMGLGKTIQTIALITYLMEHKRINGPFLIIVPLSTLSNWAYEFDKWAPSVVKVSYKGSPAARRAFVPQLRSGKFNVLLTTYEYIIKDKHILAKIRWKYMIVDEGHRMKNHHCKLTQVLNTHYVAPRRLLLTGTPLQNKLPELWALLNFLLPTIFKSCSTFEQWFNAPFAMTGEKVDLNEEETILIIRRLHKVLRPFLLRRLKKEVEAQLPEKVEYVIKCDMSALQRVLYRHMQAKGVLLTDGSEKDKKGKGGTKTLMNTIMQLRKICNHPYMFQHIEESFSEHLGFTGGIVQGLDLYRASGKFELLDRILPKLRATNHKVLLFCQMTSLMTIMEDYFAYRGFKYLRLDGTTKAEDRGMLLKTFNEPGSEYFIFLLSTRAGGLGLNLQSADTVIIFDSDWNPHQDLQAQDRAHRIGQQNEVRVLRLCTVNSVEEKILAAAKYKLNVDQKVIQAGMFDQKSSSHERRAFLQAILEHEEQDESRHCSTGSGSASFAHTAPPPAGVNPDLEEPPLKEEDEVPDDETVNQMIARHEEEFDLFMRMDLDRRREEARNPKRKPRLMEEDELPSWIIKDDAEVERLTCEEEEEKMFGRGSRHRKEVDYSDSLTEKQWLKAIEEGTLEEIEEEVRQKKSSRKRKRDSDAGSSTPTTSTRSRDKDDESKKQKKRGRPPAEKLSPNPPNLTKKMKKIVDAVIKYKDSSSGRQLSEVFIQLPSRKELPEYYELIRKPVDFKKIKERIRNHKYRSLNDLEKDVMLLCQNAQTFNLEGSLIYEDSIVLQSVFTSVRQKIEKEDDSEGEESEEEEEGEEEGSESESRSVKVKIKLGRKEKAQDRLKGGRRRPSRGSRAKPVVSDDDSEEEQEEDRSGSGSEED

T1 sequence (P51531 whole entry, species assumed): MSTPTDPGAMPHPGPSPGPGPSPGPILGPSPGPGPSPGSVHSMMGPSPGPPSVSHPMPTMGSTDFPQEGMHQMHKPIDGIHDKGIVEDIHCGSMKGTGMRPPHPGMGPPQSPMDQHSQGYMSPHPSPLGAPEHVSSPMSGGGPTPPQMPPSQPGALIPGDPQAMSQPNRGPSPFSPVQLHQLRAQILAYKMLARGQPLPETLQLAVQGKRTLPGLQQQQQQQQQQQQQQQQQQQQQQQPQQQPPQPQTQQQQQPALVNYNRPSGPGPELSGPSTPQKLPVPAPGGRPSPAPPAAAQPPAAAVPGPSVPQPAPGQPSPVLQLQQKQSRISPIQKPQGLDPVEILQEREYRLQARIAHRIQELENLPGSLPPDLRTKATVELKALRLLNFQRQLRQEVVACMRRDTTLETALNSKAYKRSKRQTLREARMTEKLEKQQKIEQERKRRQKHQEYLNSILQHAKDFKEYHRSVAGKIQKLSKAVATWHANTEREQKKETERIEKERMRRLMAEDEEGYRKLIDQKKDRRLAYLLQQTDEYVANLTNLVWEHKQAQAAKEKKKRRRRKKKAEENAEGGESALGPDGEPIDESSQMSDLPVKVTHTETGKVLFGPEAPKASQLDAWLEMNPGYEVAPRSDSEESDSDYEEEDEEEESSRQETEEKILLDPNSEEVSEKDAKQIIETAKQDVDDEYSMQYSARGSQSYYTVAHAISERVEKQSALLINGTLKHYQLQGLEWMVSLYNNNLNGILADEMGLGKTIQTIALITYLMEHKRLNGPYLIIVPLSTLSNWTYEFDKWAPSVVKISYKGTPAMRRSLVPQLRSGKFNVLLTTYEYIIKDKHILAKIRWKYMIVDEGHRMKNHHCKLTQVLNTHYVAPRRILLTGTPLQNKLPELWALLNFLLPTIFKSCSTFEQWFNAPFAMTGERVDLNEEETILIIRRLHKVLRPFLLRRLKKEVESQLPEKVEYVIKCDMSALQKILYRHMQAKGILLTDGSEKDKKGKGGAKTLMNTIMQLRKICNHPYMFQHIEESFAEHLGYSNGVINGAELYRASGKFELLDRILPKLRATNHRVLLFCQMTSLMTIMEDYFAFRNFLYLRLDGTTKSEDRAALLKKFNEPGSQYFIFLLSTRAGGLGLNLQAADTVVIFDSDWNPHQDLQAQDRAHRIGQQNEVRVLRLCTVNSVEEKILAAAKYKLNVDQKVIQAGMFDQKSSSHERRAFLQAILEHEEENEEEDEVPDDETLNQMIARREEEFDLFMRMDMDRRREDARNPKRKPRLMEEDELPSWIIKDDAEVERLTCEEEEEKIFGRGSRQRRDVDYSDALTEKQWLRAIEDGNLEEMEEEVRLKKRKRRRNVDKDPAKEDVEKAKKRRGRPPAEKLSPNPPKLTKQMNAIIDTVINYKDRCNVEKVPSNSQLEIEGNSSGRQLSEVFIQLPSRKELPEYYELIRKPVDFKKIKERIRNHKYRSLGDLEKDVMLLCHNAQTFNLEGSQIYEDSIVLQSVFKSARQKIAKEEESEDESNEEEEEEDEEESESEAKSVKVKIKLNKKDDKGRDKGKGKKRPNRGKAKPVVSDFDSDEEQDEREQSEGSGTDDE

DC50 (SMARCA2) [nM]	Dmax (SMARCA2) [%]	Fold Selectivity SMARCA4/2 (SMARCA2)	Dmax (SMARCA4) [%]	DC50 (SMARCA4) [nM]	SMILES
41.3	58.8	242	29.4	–	O=C1CC[C@H](c2ccc(N3CCC(CCN4CCC[C@@H]4C(=O)NCC4(c5ccccc5)CCN(c5cnnc(-c6ccccc6O)c5)CC4)CC3)cc2)C(=O)N1 (racemic) [Example 107, (r)-1-(2-(1-(4-((rs)-2,6-dioxopiperidin-3-yl)phenyl)piperidin-4-yl)ethyl)-n-((1-(6-(2-hydroxyphenyl)pyridazin-4-yl)-4-phenylpiperidin-4-yl)methyl)pyrrolidine-2-carboxamide]
23.4	66.5	8	52.5	179	O=C1CCC(Nc2ccc(C3CCN(CC(=O)N4CCC5(CC4)CN(C(=O)C4(c6ccccc6)CCN(c6cnnc(-c7ccccc7O)c6)CC4)C5)CC3)cc2)C(=O)N1 (racemic) [Example 108, rac-(r)-3-((4-(1-(2-(2-(1-(6-(2-hydroxyphenyl)pyridazin-4-yl)-4-phenylpiperidine-4-carbonyl)-2,7-diazaspiro[3.5]nonan-7-yl)-2-oxoethyl)piperidin-4-yl)phenyl)amino)piperidine-2,6-dione]
76.9	82.7	6	67.1	498	O=C1CC[C@H](c2ccc(C3CCN(CC(=O)N4CCC(S(=O)(=O)NCC5(c6ccccc6)CCN(c6cnnc(-c7ccccc7O)c6)CC5)CC4)CC3)cc2)C(=O)N1 (racemic) [Example 109, rac-1-(2-(4-(4-(2,6-dioxopiperidin-3-yl)phenyl)piperidin-1-yl)acetyl)-n-((1-(6-(2-hydroxyphenyl)pyridazin-4-yl)-4-phenylpiperidin-4-yl)methyl)piperidine-4-sulfonamide]
16.7	80.8	16	56.9	273	CN(C(=O)C1(Oc2ccn(C)n2)CCN(c2cnnc(-c3ccccc3O)c2)CC1)C1CCN(C(=O)CN2CCC(c3ccc([C@@H]4CCC(=O)NC4=O)cc3)CC2)CC1 (racemic) [Example 110, rac-n-(1-(2-(4-(4-(2,6-dioxopiperidin-3-yl)phenyl)piperidin-1-yl)acetyl)piperidin-4-yl)-1-(6-(2-hydroxyphenyl)pyridazin-4-yl)-n-methyl-4-((1-methyl-1h-pyrazol-3-yl)oxy)piperidine-4-carboxamide]
11.1	81.4	19	57.5	210	COC1(C(=O)N(C)C2CCN(C(=O)CN3CCC(c4ccc([C@@H]5CCC(=O)NC5=O)cc4)CC3)CC2)CCN(c2cnnc(-c3ccccc3O)c2)CC1 (racemic) [Example 111, rac-n-(1-(2-(4-(4-(2,6-dioxopiperidin-3-yl)phenyl)piperidin-1-yl)acetyl)piperidin-4-yl)-1-(6-(2-hydroxyphenyl)pyridazin-4-yl)-4-methoxy-n-methylpiperidine-4-carboxamide]
4.19	92	5	87.7	20.8	CN(C(=O)C1(Oc2ccccc2Cl)CCN(c2cnnc(-c3ccccc3O)c2)CC1)C1CCN(C(=O)CN2CCC(c3ccc([C@@H]4CCC(=O)NC4=O)cc3)CC2)CC1 (racemic) [Example 112]
9.76	83.6	9	63.4	87.4	O=C1CCC(c2ccc(C3CCN(CC(=O)N4CC5(C4)CN(C(=O)C4(Oc6ccccc6Cl)CCN(c6cnnc(-c7ccccc7O)c6)CC4)C5)CC3)cc2)C(=O)N1 (racemic) [Example 113, rac-(r)-3-(4-(1-(2-(6-(4-(2-chlorophenoxy)-1-(6-(2-hydroxyphenyl)pyridazin-4-yl)piperidine-4-carbonyl)-2,6-diazaspiro[3.3]heptan-2-yl)-2-oxoethyl)piperidin-4-yl)phenyl)piperidine-2,6-dione]
10.7	77.6	937	45.2	–	CN(C(=O)C1(OC2CC2)CCN(c2cnnc(-c3ccccc3O)c2)CC1)C1CCN(C(=O)CN2CCC(c3ccc([C@@H]4CCC(=O)NC4=O)cc3)CC2)CC1 (racemic) [Example 115, rac-4-cyclopropoxy-n-(1-(2-(4-(4-(2,6-dioxopiperidin-3-yl)phenyl)piperidin-1-yl)acetyl)piperidin-4-yl)-1-(6-(2-hydroxyphenyl)pyridazin-4-yl)-n-methylpiperidine-4-carboxamide]
7.97	88.6	7	75.8	57.4	Cc1ccccc1OC1(C(=O)N(C)C2CCN(C(=O)CN3CCC(c4ccc([C@@H]5CCC(=O)NC5=O)cc4)CC3)CC2)CCN(c2cnnc(-c3ccccc3O)c2)CC1 (racemic) [Example 116, rac-n-(1-(2-(4-(4-(2,6-dioxopiperidin-3-yl)phenyl)piperidin-1-yl)acetyl)piperidin-4-yl)-1-(6-(2-hydroxyphenyl)pyridazin-4-yl)-n-methyl-4-(o-tolyloxy)piperidine-4-carboxamide]
16.7	82.1	9	62.4	153	CN(C(=O)C1(OC2CCCCC2)CCN(c2cnnc(-c3ccccc3O)c2)CC1)C1CCN(C(=O)CN2CCC(c3ccc([C@@H]4CCC(=O)NC4=O)cc3)CC2)CC1 (racemic) [Example 117, rac-4-(cyclohexyloxy)-n-(1-(2-(4-(4-(2,6-dioxopiperidin-3-yl)phenyl)piperidin-1-yl)acetyl)piperidin-4-yl)-1-(6-(2-hydroxyphenyl)pyridazin-4-yl)-n-methylpiperidine-4-carboxamide]
8.85	84	4	76.5	35.5	O=C1CC[C@H](c2ccc(N3CCC(CCN4CCC(S(=O)(=O)NCC5(c6ccccc6)CCN(c6cnnc(-c7ccccc7O)c6)CC5)CC4)CC3)cc2)C(=O)N1 (racemic) [Example 118, rac-1-(2-(1-(4-(2,6-dioxopiperidin-3-yl)phenyl)piperidin-4-yl)ethyl)-n-((1-(6-(2-hydroxyphenyl)pyridazin-4-yl)-4-phenylpiperidin-4-yl)methyl)piperidine-4-sulfonamide]
14.9	74.3	671	29.3	–	O=C1CCC(c2ccc(N3CCC(CCN4CC5(C4)CN(C(=O)C4(OC6CCCCC6)CCN(c6cnnc(-c7ccccc7O)c6)CC4)C5)CC3)cc2)C(=O)N1 (racemic) [Example 121, rac-3-(4-(4-(2-(6-(4-(cyclohexyloxy)-1-(6-(2-hydroxyphenyl)pyridazin-4-yl)piperidine-4-carbonyl)-2,6-diazaspiro[3.3]heptan-2-yl)ethyl)piperidin-1-yl)phenyl)piperidine-2,6-dione]
9.13	73.6	1095	34.8	–	O=C1CCC(c2ccc(N3CCC(F)(CCN4CC5(C4)CN(C(=O)C4(c6ccccc6)CCN(c6cnnc(-c7ccccc7O)c6)CC4)C5)CC3)cc2)C(=O)N1 (racemic) [Example 122, rac-(3R)-3-(4-{4-fluoro-4-[2-(6-{1-[6-(2-hydroxyphenyl)pyridazin-4-yl]-4-phenylpiperidine-4-carbonyl}-2,6-diazaspiro[3.3]heptan-2-yl)ethyl]piperidin-1-yl}phenyl)piperidine-2,6-dione]
11.3	75.9	882	25.1	–	CN(C(=O)C1(OC2CC2)CCN(c2cnnc(-c3ccccc3O)c2)CC1)C1CCN(CCC2CCN(c3ccc(C4CCC(=O)NC4=O)cc3)CC2)CC1 (racemic) [Example 124, rac-4-cyclopropoxy-N-{1-[2-(1-{4-[(3r)-2,6-dioxopiperidin-3-yl]phenyl}piperidin-4-yl)ethyl]piperidin-4-yl}-1-[6-(2-hydroxyphenyl)pyridazin-4-yl]-N-methylpiperidine-4-carboxamide]
32.8	80.9	304	32.2	–	Cn1c(=O)n(C2CCC(=O)NC2=O)c2cccc(N3CCN(CC(=O)N4CC5(C4)CN(C(=O)C4(c6ccccc6)CCN(c6cnnc(-c7ccccc7O)c6)CC4)C5)CC3)c21 (racemic) [Example 126, rac-(3R)-3-(4-{4-[2-(6-{1-[6-(2-hydroxyphenyl)pyridazin-4-yl]-4-phenylpiperidine-4-carbonyl}-2,6-diazaspiro[3.3]heptan-2-yl)-2-oxoethyl]piperazin-1-yl}-3-methyl-2-oxo-2,3-dihydro-1H-1,3-benzodiazol-1-yl)piperidine-2,6-dione]
32	64.2	312	56.1	–	O=C1CCC(c2ccc(N3CCC4(CC3)COC(CN3CC5(CCN(C(=O)C6(c7ccccc7)CCN(c7cnnc(-c8ccccc8O)c7)CC6)CC5)C3)C4)cc2)C(=O)N1 (racemic) [Example 127, rac-(3R)-3-(4-{3-[(7-{1-[6-(2-hydroxyphenyl)pyridazin-4-yl]-4-phenylpiperidine-4-carbonyl}-2,7-diazaspiro[3.5]nonan-2-yl)methyl]-2-oxa-8-azaspiro[4.5]decan-8-yl}phenyl)piperidine-2,6-dione]
11.1	71.6	899	39.1	–	Cn1ccc(OC2(C(=O)N3CCC4(CC3)CN(CCC3CCN(c5ccc(C6CCC(=O)NC6=O)cc5)CC3)C4)CCN(c3cnnc(-c4ccccc4O)c3)CC2)n1 (racemic) [Example 128, rac-3-(4-(4-(2-(7-(1-(6-(2-hydroxyphenyl)pyridazin-4-yl)-4-((1-methyl-1h-pyrazol-3-yl)oxy)piperidine-4-carbonyl)-2,7-diazaspiro[3.5]nonan-2-yl)ethyl)piperidin-1-yl)phenyl)piperidine-2,6-dione]
